Source: patent US4914191A, “Anthracycline derivatives having cytostatic activity” (Behringwerke Aktiengesellschaft, priority 1987, dated 1990)
≈ marks a conversion by molar mass, not a printed value. Like-named read-outs stand apart in the source and are kept apart here.

Tests used:
[1] = approximative toxicity, intraperitoneal (LD50); conditions: in vivo, ip; one intraperitoneal administration; read-out: Approximative toxicity LD50, 1xip
From the text: *3xip,q3d: three intraperitoneal administrations with an interval of thre
1xip: one intraperitoneal administration

L1210 leukemia cells = test: cross-resistance in vitro, MTT assay on sensitive and adriamycin (doxorubicin)-resistant L1210 leukemia cells; assay type: cell-based, mouse; conditions: 3d incubation
Description: L1210, A 549 or HT 29 in the exponential phase of growth are incubated in a cell density of 5×10^3 cells/ml in RPMI 1640 in a 96-well microtiter plate for 72 hours with various concentrations of the test substance at 37° C., 5% CO2 and 95% relative humidity. Control experiments contain merely growth medium in place of the test substance. Each test substance and the control are determined in quadruplicate. After incubation for 65 hours, 50 μl of MTT solution (2.5 mg/ml in phosphate-buffered saline) are added. In the presence of live cells, MTT is reduced to a dark-red insoluble formazan dyestuff. This reaction is complete after 7 hours (L1210 cells) or after 24 hours (A 549, HT 29 cells), and the supernatant medium is carefully removed by aspiration. The insoluble dyestuff is dissolved by addition of 100 μl of DMSO, and the extinction of the resulting solution at a wavelength of 492 nm is then measured for each well in a Flow 340 CC multiscan photometer.
The ratio of the extinctions of treated and untreated cells yields a dose-effect plot from which the concentration which just kills 50% of the cells (IC50) can be read off. The coefficient of variation for repeat tests is less than 15%.
The cross-resistance between the particular test compound and doxorubicin is determined using the MTT assay (for method, see above) on sensitive and resistant L1210 leukemia cells.
The resistant cell line was established by incubation of a sensitive subline with stepwise increasing concentrations of the reference compound.
The IC50 of the test compound on the resistant subline relative to the IC50 of the sensitive subline yields the degree of resistance both for the test compound (DR(T)) and for the reference compound (DR(R)) in accordance with the formula [formula]
In addition, the degree of cross-resistance (DCR) for the test compound is calculated in accordance with the formula [formula]
In the case where the loss of activity of the test compound on the resistant line related to the sensitive line is greater than that of the reference compound, a degree of cross-resistance of more than 100% is possible.

[2] = tested on: L1210 mouse leukemia cells; test: formation of colonies of L1210 leukemia cells in soft agar; assay type: cell-based; conditions: Mus musculus
Description: The cytostatic activity of the compounds according to the invention was tested using L1210 mouse leukemia cells. This made use of the formation of colonies of L1210 leukemia cells in agar plates. This method is used to detect the effect of the test substances on the growth behavior of the cells over 1 hour or over several generations. With a cell cycle lasting 10-12 hours, this means that about 14 consecutive generations are observed in a test lasting 7 days. In this test, the substances having cytostatic activity according to the invention bring about a reduction in the number of colonies to be observed by comparison with an untreated control sample.
500 leukemia cells per plate were incubated with various concentrations of the test substance at 37° C. for 1 hour. These cells were then washed twice with McCoy5A medium and finally, after addition of 0.3% agar, poured into Petri dishes. Controls were incubated only with fresh medium. In some cases, in place of the incubation for one hour, various concentrations of test substances were mixed with the upper agar layer in order in this way to achieve continuous exposure of the cells throughout the incubation time. After the agar had solidified, the plates were incubated at 37° C. in an incubator for 7 days (5% by vol. CO2, 95% relative humidity). The number of colonies with a diameter of more than 60 μm which had formed was then counted. The results have been given as the number of colonies in treated agar plates as a percentage of the untreated control. The IC50 was determined, as a measure of the activity of the substance, from the dose-effect plot obtained in this way.

## CC[C@@]1(O)C[C@H](O[C@H]2C[C@H](N(C)C)[C@H](OC(C)=O)[C@H](C)O2)c2c(O)c3c(c(O)c2[C@H]1O)C(=O)c1cccc(O)c1C3=O [Compound 21, 7-O-(4'-O-Acetyl-α-L-rhodosaminyl)-β-rhodomycinone]
[1]
  LD50: 1 to 10 mg/kg
L1210 leukemia cells
  Degree of cross-resistance to adriamycin: 2.4%
L1210 leukemia cells; IC50 resistant subline relative to IC50 sensitive line
  Degree of resistance of the cell: 2.2
[2]; 168 h, continuous exposure, 7 days, L1210 colony formation, read-out: Long-term incubation IC50
  IC50: 0.08 µg/mL (≈ 0.137 µM)
[2]; 1 h incubation, then 7 days colony formation, L1210, read-out: 1 h Incubation IC50
  IC50: 0.7 µg/mL (≈ 1.2 µM)
